Data as given in the METLIN SMRT retention time set (Domingo-Almenara et al. 2019).

Experiment: gradient 5% acetonitrile 3 min, to 50% in 2 min, to 85% in 15 min, held 3 min, 100 µL/min
Settings: column: Zorbax Extend-C18 2.1 x 50 mm; eluents: water / acetonitrile, 0.1% formic acid
In short: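 Retention time was recorded from adduct peaks, which were picked computationally and each inspected manually. Pure standards ran in mixtures of ~100 molecules on HPLC coupled to a quadrupole time-of-flight mass spectrometer, in positive and negative ionization mode, through a Zorbax Extend-C18 column (2.1 × 50 mm, 1.8 μm) at 100 μL/min. Eluents were water and acetonitrile, each with 0.1% formic acid.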

RP-LC retention time [s]	Structure (SMILES)
668	O=C(Cc1csc(NC(=O)c2ccco2)n1)NCc1cccs1
650	CCc1nc2c(c(=O)n1CC(=O)Nc1ccccc1OC)CN(Cc1ccccc1)CC2
690	Cc1ccc(-c2nnc(-c3cccnc3NCCCN3CCOCC3)o2)cc1
803	Cc1ccc(NC(=O)N2CCC(OC3CCN(S(C)(=O)=O)CC3)CC2)cc1C
827	O=C(Nc1cc(-c2ccccn2)no1)C1CCCCC1
649	Cc1nc2ccc(C(=O)NC(C)C)cc2nc1C
879	O=C(CCc1nc2ccccc2n(CC(=O)NC2CCc3ccccc32)c1=O)NC1CCCCC1 (configuration not stated)
805	Cc1cccc(NC(=O)C2CCCN2S(=O)(=O)c2ccc3c(c2)NC(=O)CO3)c1C (configuration not stated)
891	Cc1oc2ccn(Cc3ccccc3F)c(=O)c2c1C(=O)NCC1CCCO1 (configuration not stated)
878	Cc1ccc(-n2nc3c(=O)n(C(C)C(=O)NCc4ccc5c(c4)OCO5)nc(C)c3c2C)cc1 (configuration not stated)
1250	COc1cc(Cl)c(NC(=O)C2CCCN(c3nc4ccccc4nc3OC)C2)c(OC)c1 (configuration not stated)
885	O=C(CN1C(=O)C2CCCCN2c2ccc(S(=O)(=O)N3CCCC3)cc21)NCCc1ccco1 (configuration not stated)
600	CCOc1cc(=O)n2c(c1C(=O)NCCOC)CCCCC2
1270	Cc1ccc(-c2noc(Cn3cnc4c(cnn4-c4ccc(C)c(Cl)c4)c3=O)n2)cc1
1140	COc1cc(Cl)ccc1-c1nc(-c2ccc3oc(C)nc3c2)no1
755	CCCn1c(=O)c2sc(N3CCCC3)nc2n(CC(=O)NCc2cccs2)c1=O
660	COc1cccc(CNC(=O)C2CCc3nc(N4CCOCC4)ncc3C2)c1 (configuration not stated)
840	O=C(NCc1cccc(F)c1)C1c2ccccc2CCN1C(=O)C1CC1 (configuration not stated)
690	CC(=O)N1CCCN(C2=NS(=O)(=O)C(c3ccc(F)cc3)=C2C)CC1

RP-LC retention time [s]	Structure (SMILES)
1100	CSc1cccc(N2C(=O)C3N=NN(Cc4nc(-c5ccc(C)c(C)c5)no4)C3C2=O)c1 (configuration not stated)
805	CC(C)c1ccc(S(=O)(=O)N2CCC(C(=O)NCc3cscn3)CC2)cc1
689	CCCN1CCN(C(=O)C(C)C2CCN(S(=O)(=O)c3ccc(Br)s3)CC2)CC1 (configuration not stated)
866	O=C(O)c1cnc(N2CCSCC2)nc1-c1ccccc1
905	O=C(Cc1cccc(C(F)(F)F)c1)Nc1cccn2c(C3CCC3)nnc12
653	CC(=O)NCc1nc(-c2ccc(N3CCSCC3)nc2)no1
871	Cc1cc(OCC(=O)Nc2cccc(F)c2)nc(N2CCN(c3ccccc3)CC2)n1
585	Cc1ccc(C)c(C(=O)Nc2cc(-c3cccnc3)no2)c1
663	CC1CCN(CCNC(=O)c2nnc(-c3ccc(S(=O)(=O)N4CCCCC4)cc3)o2)CC1
585	Cc1ccc(CNC(=O)c2ccc3c(c2)ncn3CCN2CCCC2)cc1
804	Cc1ccc(NC(=O)C2CCN(S(=O)(=O)c3cc(C(=O)N(C)C)cs3)CC2)c(C)c1
1310	Cn1c(=O)c(C(=O)N2CCN(c3ccccn3)CC2)nc2ccccc21
873	CCCn1cnc2ccc(-c3noc(-c4cccc(F)c4)n3)cc21
595	Cc1ccc(CN2CCC3(CC2)CC(CC(=O)N2CCOCC2)CCO3)s1 (configuration not stated)
575	Cn1cc(CN2CCn3c(nnc3[C@@H]3C[C@@H](O)CN3Cc3cccnc3)C2)c2ccccc21
623	Cc1nncn1C1CN(C(=O)c2cc3ccccc3[nH]2)C1
637	Nc1nc(SCC(=O)Nc2cccc(C(F)(F)F)c2)n[nH]1
1180	Cc1ccc(N2CC(c3noc(-c4ccc(-c5ccccc5)cc4)n3)CC2=O)cc1 (configuration not stated)
